The source made the active and inactive calls. No cut-off for these calls is given here.

Data set [1] in a line: Hepatotoxicity in zymosan-induced rat arthritis model assessed as effect on sinusoids elongation at 215 mg/kg, ig administered once daily for 7 days by hematoxylin-eosin staining based histological analysis. The data set is classed as toxicity, organism-based, Liver. The following applies: in vivo, po, 168 h, time 7 day.
Data set [2] can be described thus: Hepatotoxicity in zymosan-induced rat arthritis model assessed as appearance of vacuoles in hepatocyte cytoplasm at 215 mg/kg, ig administered once daily for 7 days by hematoxylin-eosin staining based histological analysis. The format is toxicity, organism-based, Liver. The following applies: in vivo, po, 168 h, time 7 day.
In data set [3] the test system is Rattus norvegicus. The experiment in a line: Antipyretic activity against LPS-induced polyphasic febrile response in rats assessed as suppression of rise in core body temperature at 215 mg/kg, po treated 40 mins prior to LPS addition and measured after 10 mins. The format is functional, organism-based. The following applies: time 50.0 min.
In data set [4] the test system is Rattus norvegicus. Nature of the data set: Antinociceptive activity in zymosan-induced rat arthritis model assessed as nociceptive response inhibition at 215 mg/kg, ig administered once daily for 7 days and measured 1 hr post-zymosan challenge on day 7 by Randall-Selitto test (reference value: -34.6%). The format is functional. The following applies: po, 168 h, time 7 day.

The nature of data set [5]: Hepatotoxicity in zymosan-induced rat arthritis model assessed as change in hepatocyte nucleus size at 215 mg/kg, ig administered once daily for 7 days by hematoxylin-eosin staining based histological analysis. The data set is classed as toxicity, organism-based, Liver. The following applies: in vivo, po, 168 h, time 7 day.
Data set [6] is described as follows: Hepatotoxicity in zymosan-induced rat arthritis model assessed as change in hepatocyte cytoplasmic appearance at 215 mg/kg, ig administered once daily for 7 days by hematoxylin-eosin staining based histological analysis. The data set is classed as toxicity, organism-based, Liver. As to conditions: in vivo, po, 168 h, time 7 day.
Data set [7] has as its system Rattus norvegicus. Nature of the data set: Antipyretic activity against LPS-induced polyphasic febrile response in rats assessed as change in core body temperature at 215 mg/kg, po treated 40 mins prior to LPS addition and measured after 160 mins during phase 1 (reference value: 0.85 deg C). The data set is classed as functional, organism-based. The following applies: time 200.0 min.

The subject of data set [8] is Rattus norvegicus. Nature of the data set: Antinociceptive activity in zymosan-induced rat model of thermal nociceptive hypersensitivity assessed as nociceptive response inhibition at 215 mg/kg, ig administered once daily for 7 days and measured 1 hr post-zymosan challenge on day 7 by hot-plate test (reference value: -42.4%). As to conditions: po, 168 h, time 7 day. The format is functional.

Data set [9] in a line: Hepatotoxicity in zymosan-induced rat arthritis model assessed as disruption of hepatocyte membrane at 215 mg/kg, ig administered once daily for 7 days by hematoxylin-eosin staining based histological analysis. The format is toxicity, organism-based, Liver. As to conditions: in vivo, po, 168 h, time 7 day.
Data set [10] is described as follows: Hepatotoxicity in zymosan-induced rat arthritis model assessed as change in hepatocyte karyoplasm at 215 mg/kg, ig administered once daily for 7 days by hematoxylin-eosin staining based histological analysis. The format is toxicity, organism-based, Liver. As to conditions: in vivo, po, 168 h, time 7 day.
Data set [11] has as its system Rattus norvegicus. Nature of the data set: Antipyretic activity against LPS-induced polyphasic febrile response in rats assessed as suppression of rise in core body temperature at 215 mg/kg, po treated 40 mins prior to LPS addition and measured after 160 mins relative to control. The format is functional. The following applies: time 200 min, 3.333 h.
The nature of data set [12]: Hepatotoxicity in zymosan-induced rat arthritis model assessed as effect on beam structure of liver at 215 mg/kg, ig administered once daily for 7 days by hematoxylin-eosin staining based histological analysis. The format is toxicity, organism-based. As to conditions: in vivo, po, 168 h, time 7 day.
Data set [13] in a line: Hepatotoxicity in zymosan-induced rat arthritis model assessed as change in shape of liver central veins at 215 mg/kg, ig administered once daily for 7 days by hematoxylin-eosin staining based histological analysis. The format is toxicity, organism-based. As to conditions: in vivo, po, 168 h, time 7 day.
Data set [14] is described as follows: Hepatotoxicity in zymosan-induced rat arthritis model assessed as change in shape of liver portal tracts at 215 mg/kg, ig administered once daily for 7 days by hematoxylin-eosin staining based histological analysis. The following applies: in vivo, po, 168 h, time 7 day. The data set is classed as toxicity, organism-based.
Data set [15] deals with Rattus norvegicus. Nature of the data set: Antipyretic activity against LPS-induced polyphasic febrile response in rats assessed as return of body temperature to background value at 215 mg/kg, po treated 40 mins prior to LPS addition and measured after 190 mins. The following applies: time 230.0 min. The format is functional, organism-based.
The nature of data set [16]: Hepatotoxicity in zymosan-induced rat arthritis model assessed as change in hepatocyte shape at 215 mg/kg, ig administered once daily for 7 days by hematoxylin-eosin staining based histological analysis. The data set is classed as toxicity, organism-based, Liver. As to conditions: in vivo, po, 168 h, time 7 day.
A short description of data set [17]: Hepatotoxicity in zymosan-induced rat arthritis model assessed as effect on general architecture of liver at 215 mg/kg, ig administered once daily for 7 days by hematoxylin-eosin staining based histological analysis. As to conditions: in vivo, po, 168 h, time 7 day. The data set is classed as toxicity, organism-based.
A short description of data set [18]: Hepatotoxicity in zymosan-induced rat arthritis model assessed as effect on sinusoids arrangement at 215 mg/kg, ig administered once daily for 7 days by hematoxylin-eosin staining based histological analysis. The data set is classed as toxicity, organism-based, Liver. The following applies: in vivo, po, 168 h, time 7 day.
Data set [19] relates to Rattus norvegicus. The experiment in a line: Antinociceptive activity in zymosan-induced rat model of thermal nociceptive hypersensitivity assessed as nociceptive response inhibition at 180 mg/kg, ig administered once daily for 7 days and measured 1 hr post-zymosan challenge on day 7 by hot-plate test (reference value: -42.4%). The data set is classed as functional. The following applies: po, 168 h, time 7 day.

Data set [20] is described as follows: Hepatotoxicity in zymosan-induced rat arthritis model assessed as effect on sinusoids arrangement at 180 mg/kg, ig administered once daily for 7 days by hematoxylin-eosin staining based histological analysis. The format is toxicity, organism-based, Liver. As to conditions: in vivo, po, 168 h, time 7 day.
For data set [21], the system named is Rattus norvegicus. Nature of the data set: Antipyretic activity against LPS-induced polyphasic febrile response in rats assessed as suppression of rise in core body temperature at 180 mg/kg, po treated 40 mins prior to LPS addition and measured after 160 mins relative to control. As to conditions: time 200 min, 3.333 h. The format is functional.
Data set [22] in a line: Hepatotoxicity in zymosan-induced rat arthritis model assessed as appearance of vacuoles in hepatocyte cytoplasm at 180 mg/kg, ig administered once daily for 7 days by hematoxylin-eosin staining based histological analysis. As to conditions: in vivo, po, 168 h, time 7 day. The data set is classed as toxicity, organism-based, Liver.
In data set [23] the test system is Rattus norvegicus. Nature of the data set: Antipyretic activity against LPS-induced polyphasic febrile response in rats assessed as change in core body temperature at 180 mg/kg, po treated 40 mins prior to LPS addition and measured after 160 mins during phase 1 (reference value: 0.85 deg C). The data set is classed as functional, organism-based. As to conditions: time 200.0 min.

A short description of data set [24]: Hepatotoxicity in zymosan-induced rat arthritis model assessed as change in hepatocyte nucleus size at 180 mg/kg, ig administered once daily for 7 days by hematoxylin-eosin staining based histological analysis. The data set is classed as toxicity, organism-based, Liver. As to conditions: in vivo, po, 168 h, time 7 day.
A short description of data set [25]: Hepatotoxicity in zymosan-induced rat arthritis model assessed as change in shape of liver portal tracts at 180 mg/kg, ig administered once daily for 7 days by hematoxylin-eosin staining based histological analysis. The data set is classed as toxicity, organism-based. The following applies: in vivo, po, 168 h, time 7 day.
The nature of data set [26]: Hepatotoxicity in zymosan-induced rat arthritis model assessed as change in hepatocyte shape at 180 mg/kg, ig administered once daily for 7 days by hematoxylin-eosin staining based histological analysis. The format is toxicity, organism-based, Liver. As to conditions: in vivo, po, 168 h, time 7 day.
The test system of data set [27] is Rattus norvegicus. The experiment in a line: Antinociceptive activity in zymosan-induced rat arthritis model assessed as nociceptive response inhibition at 180 mg/kg, ig administered once daily for 7 days and measured 1 hr post-zymosan challenge on day 7 by Randall-Selitto test (reference value: -34.6%). The data set is classed as functional. As to conditions: po, 168 h, time 7 day.

A short description of data set [28]: Hepatotoxicity in zymosan-induced rat arthritis model assessed as effect on sinusoids elongation at 180 mg/kg, ig administered once daily for 7 days by hematoxylin-eosin staining based histological analysis. The data set is classed as toxicity, organism-based, Liver. The following applies: in vivo, po, 168 h, time 7 day.
Data set [29] in a line: Hepatotoxicity in zymosan-induced rat arthritis model assessed as change in hepatocyte karyoplasm at 180 mg/kg, ig administered once daily for 7 days by hematoxylin-eosin staining based histological analysis. The format is toxicity, organism-based, Liver. The following applies: in vivo, po, 168 h, time 7 day.
The nature of data set [30]: Hepatotoxicity in zymosan-induced rat arthritis model assessed as effect on beam structure of liver at 180 mg/kg, ig administered once daily for 7 days by hematoxylin-eosin staining based histological analysis. The format is toxicity, organism-based. As to conditions: in vivo, po, 168 h, time 7 day.
The test system of data set [31] is Rattus norvegicus. Nature of the data set: Antipyretic activity against LPS-induced polyphasic febrile response in rats assessed as suppression of rise in core body temperature at 180 mg/kg, po treated 40 mins prior to LPS addition and measured after 200 mins. The data set is classed as functional, organism-based. The following applies: time 240.0 min.
Data set [32] has as its system Rattus norvegicus. The experiment in a line: Antipyretic activity against LPS-induced polyphasic febrile response in rats assessed as suppression of rise in core body temperature at 180 mg/kg, po treated 40 mins prior to LPS addition and measured after 10 mins. The format is functional, organism-based. As to conditions: time 50.0 min.
Data set [33] in a line: Hepatotoxicity in zymosan-induced rat arthritis model assessed as change in hepatocyte cytoplasmic appearance at 180 mg/kg, ig administered once daily for 7 days by hematoxylin-eosin staining based histological analysis. The format is toxicity, organism-based, Liver. As to conditions: in vivo, po, 168 h, time 7 day.
The nature of data set [34]: Hepatotoxicity in zymosan-induced rat arthritis model assessed as disruption of hepatocyte membrane at 180 mg/kg, ig administered once daily for 7 days by hematoxylin-eosin staining based histological analysis. The format is toxicity, organism-based, Liver. The following applies: in vivo, po, 168 h, time 7 day.
Data set [35] in a line: Hepatotoxicity in zymosan-induced rat arthritis model assessed as change in shape of liver central veins at 180 mg/kg, ig administered once daily for 7 days by hematoxylin-eosin staining based histological analysis. The format is toxicity, organism-based. As to conditions: in vivo, po, 168 h, time 7 day.
The nature of data set [36]: Hepatotoxicity in zymosan-induced rat arthritis model assessed as effect on general architecture of liver at 180 mg/kg, ig administered once daily for 7 days by hematoxylin-eosin staining based histological analysis. The format is toxicity, organism-based. As to conditions: in vivo, po, 168 h, time 7 day.

On to `CCCCCCCCCCCCCCCC(=O)Nc1ccc(OCC(=O)O)cc1`, for which the Activity result in data set [1], in data set [2], in data set [5], in data set [6], in data set [9] and in data set [10] was “Non-toxic” each time. For the same compound, the Activity entry in data set [12], in data set [13], in [14], in data set [16], in data set [17] and in [18] was “Non-toxic” throughout. For the same compound, the result in the data set with Rattus norvegicus [3] and in the data set with Rattus norvegicus [15] was Active. The inhibition in vivo at 215 mg/kg in the data set on Rattus norvegicus [4] came out at 21.7%; with Rattus norvegicus [8] it was 42.2%. For the same compound, the ΔTm in the data set with Rattus norvegicus [7] was 0.28 °C. The “fold change (FC)” value with Rattus norvegicus [11] was 3.

Regarding `CCCCCCCC(=O)Nc1ccc(OCC(=O)NCCO)cc1`, the inhibition in vivo at 180 mg/kg with Rattus norvegicus [19] amounted to 12.3%; in the data set with Rattus norvegicus [27], 48.1%. Further, the Activity result in data set [20], in [22], in data set [24], in data set [25], in [26] and in data set [28] was “Non-toxic” in each case. Also, the Activity entry in [29], in [30], in [33], in [34], in data set [35] and in [36] was “Non-toxic” in each case. Moreover, in the data set with Rattus norvegicus [21], the “fold change (FC)” value was 3. Also, the ΔTm with Rattus norvegicus [23] was found to be 0.28 °C. Also, the result in the data set with Rattus norvegicus [31] and in the data set with Rattus norvegicus [32] was Active.

(Values after ChEMBL document CHEMBL6114949, “Synthesis and physiological effects of new 4-aminophenol derivatives as paracetamol analogues” (Bioorg Med Chem Lett, 2025).)
